Source: US20170000849A1, “CD300A RECEPTORS AS VIRUS ENTRY COFACTORS” (INSTITUT NATIONAL DE LA SANTE ET DE LA RECHERCHE MEDICALE …, priority 2013, published 2017)

Assays:
[1] = test system: binding of TIM3-Fc to DV2 JAM particles; experiment: ELISA: binding of TIM3-Fc to DV2 JAM coated particles in the presence of Annexin V; design: species or system human; conditions: ANX5 0.31-20 μg/ml, TIM3-Fc 2 μg/ml
Experimental: (§1) Bar chart representing the amount of TIM3-Fc, CD300a-Fc or DV-SIGN-Fc bound to DV2 JAM particles in the presence of different concentration of Annexin V, a PtdSer specific ligand. DV2 JAM particles were coated in 96 well plates and incubated for one hour at +4° C. with various concentrations of the PtdSer specific ligand Annexin V before the addition of human IgG1-Fc, TIM3-Fc, CD300a-Fc or DV-SIGN-Fc (2 μg/ml). Bound Fcs were detected with a HRP conjugated rabbit pAb to human IgG (1/1000) and OPD substrate. Data are represented as mean±SD of three independent experiments performed in duplicates.
To identify whether CD300a recognized these phospholipids at the surface of virions, DV2 JAM coated particles were challenged with serially diluted concentrations of the PtdSer specific ligand AnnexinV (ANX5) (0.31-20 μg/ml, FIG. 14) or the PtdEth specific ligand Duramycin (0.625-5 μM, FIG. 15) before the addition of Fc coupled molecules.

[2] = test system: binding of DC-SIGN-Fc to DV2 JAM particles; design: species or system human; conditions: DV2 JAM coated particles; ANX5 0.31-20 μg/ml, Duramycin 0.625-5 μM, EDTA 1.25 to 25 mM
Experimental: All ELISA were performed on Maxisorp 96 well plates (Nunc). PBS diluted DV particles (1.106 FIU) were coated overnight at 4° C. […] Wells were saturated with TBS 1×, 10 mM CaCl2, 2% BSA for 2 h at 37° C. All dilutions were in TBS 1×, 10 mM CaCl2, washes in TBS 1×, 10 mM CaCl2, 0.5% Tween 20, and incubations, 1 h at 4° C. Annexin V or Duramycin were added previously to Fc chimera while EDTA was mixed with Fcs′. All Fcs' were 2 μg/ml. Bound Fcs' were detected with a pAb rabbit anti-human IgG-HRP and OPD substrate.

[3] = target: binding of CD300a-Fc to DV2 JAM particles (Homo sapiens, UniProt Q9UGN4); experiment: ELISA: binding of CD300a-Fc to DV2 JAM coated particles in the presence of inhibitor; conditions: for inhibition of the binding of CD300a to DV: ANX5 0.31-20 μg/ml or Duramycin 0.625-5 μM added before CD300a-Fc (2 μg/ml); for effect on CD300a-Fc binding to DV (in words): rat mAb 0.625 to 20 μg/ml, EDTA 1.25 to 25 mM mixed with Fc, ANX5, Duramycin added before Fc
Sequence of binding of CD300a-Fc to DV2 JAM particles (Q9UGN4 with tags, fused parts or gaps limits assumed): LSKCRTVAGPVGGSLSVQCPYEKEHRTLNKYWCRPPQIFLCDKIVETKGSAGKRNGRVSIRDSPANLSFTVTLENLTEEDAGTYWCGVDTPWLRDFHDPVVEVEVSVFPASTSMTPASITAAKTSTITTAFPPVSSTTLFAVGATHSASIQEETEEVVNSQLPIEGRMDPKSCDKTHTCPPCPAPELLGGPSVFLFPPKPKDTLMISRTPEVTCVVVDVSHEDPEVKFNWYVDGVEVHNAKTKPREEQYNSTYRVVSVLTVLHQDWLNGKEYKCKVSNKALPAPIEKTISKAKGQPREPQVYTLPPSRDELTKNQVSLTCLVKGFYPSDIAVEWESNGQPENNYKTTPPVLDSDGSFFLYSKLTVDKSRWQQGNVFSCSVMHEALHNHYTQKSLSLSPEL
Experimental: Graph representing the amount of CD300a-Fc bound by DV2 JAM coated particles in the presence of anti-CD300Ab. Serial dilutions of a rat mAb to CD300a or its IgG2a isotype were mixed with CD300a-Fc before incubation with DV2 JAM coated particles. Residual bound Fc was detected with a HRP conjugated rabbit pAb to human IgG (1/1000) and OPD substrat. Data are represented as mean±SD of three independent experiments performed in duplicates.
as §1
Bar chart representing the amount of CD300a-Fc or DV-SIGN-Fc bound to DV2 JAM particles in the presence of different concentration of Duramycin. DV2 JAM particles were coated in 96 well plates and incubated for one hour at +4° C. with various concentrations of the PtdEth specific ligand Duramycin before the addition of human IgG1-Fc, TIM3-Fc, CD300a-Fc or DV-SIGN-Fc (2 μg/ml). Bound Fcs were detected with a HRP conjugated rabbit pAb to human IgG (1/1000) and OPD substrate. Data are represented as mean±SD of three independent experiments performed in duplicates.
Bar chart representing the amount of CD300a-Fc bound by DV2 JAM coated particles in the presence of EDTA. Two fold serial dilutions of EDTA (1-25 mM) were mixed with CD300a-Fc before incubation with DV2 JAM coated particles. Bound Fcs were detected with a HRP conjugated rabbit pAb to human IgG (1/1000) and OPD substrate. Data shown are mean±SD of duplicates wells and representative of three independent experiments.
All ELISA were performed on Maxisorp 96 well plates (Nunc). PBS diluted DV particles (1.106 FIU) were coated overnight at 4° C. Coated 3-sn-phosphatidyl-Choline, -Ethanolamine or -Serine (10 μg/well, Sigma, Lyon, France) were diluted in ethanol and the wells air dried. Wells were saturated with TBS 1×, 10 mM CaCl2, 2% BSA for 2 h at 37° C. All dilutions were in TBS 1×, 10 mM CaCl2, washes in TBS 1×, 10 mM CaCl2, 0.5% Tween 20, and incubations, 1 h at 4° C. Annexin V or Duramycin were added previously to Fc chimera while EDTA was mixed with Fcs′. All Fcs' were 2 μg/ml. Bound Fcs' were detected with a pAb rabbit anti-human IgG-HRP and OPD substrate.

| Substance | binding of TIM3-Fc to DV blocked [1] | effect on DV/DC-SIGN-Fc binding (in words) [2] | inhibition of the binding of CD300a to DV [3] | effect on CD300a-Fc binding to DV (in words) [3] |
| --- | --- | --- | --- | --- |
| Annexin V [ANX5] | up to 60% | left unchanged | up to 35% | inhibited in a concentration dependent manner |
| Duramycin [reference compound] | – | left unchanged | up to 98% | inhibited in a concentration dependent manner |
